In patent publication US20230286973A1, “PROTEIN SECRETION INHIBITORS” (KEZAR LIFE SCIENCES, priority 2020, published 2023):
Where two headings read alike, the source gives them in different places.

Tests used:
[1] = Liver Microsome Stability Assay (rat); settings: rat liver microsomes, with NADPH, 1.0 uM compound
Description: (§2) Stability of a compound was assessed in the presence of liver microsomes from various sources—mouse, rat, monkey and human liver microsomes. 1.0 uM compound, 0.4% DMSO in 0.1 M Potassium Phosphate with 1.0 mg/mL liver microsomes, were incubated at 37° C. with or without 1 mM NADPH. The samples were quenched at 0, and 30 minutes.

[2] = Liver Microsome Stability Assay (mouse); settings: mouse liver microsomes, with NADPH, 1.0 uM compound
Description: as §2

[3] = Liver Microsome Stability Assay (human); settings: human liver microsomes, with NADPH, 1.0 uM compound
Description: as §2

[4] = Liver Microsome Stability Assay (monkey); settings: monkey liver microsomes, with NADPH, 1.0 uM compound
Description: as §2

[5] = test system: PD1-ss+10aa/Gaussia Luciferase; test: Dox-Induced PD1-ss-Gluc Assay; assay type: cell-based; settings: 24 hr Dox induction, 293FRT/TO cells, read-out: 24 hr Dox Inducible PD1ssGluc 293FRT/TO: Mean IC50
Description: Flp-In 293 T-REx™ cells were transfected with pcDNA™5/FRT/TO plasmid inserted with cDNA encoding Gaussia Luciferase fused to the 3′ end of cDNA encoding PD1 signal sequence plus 10 amino acids (N-[…]-C) (SEQ ID NO: 1). Transfected cells were selected for resistance to the selectable markers Hygromycin and Blasticidin to create a stable cell line that contained the PD1-ss+10aa/Gaussia Luciferase cDNA insert whose expression was regulated under the T-REx™ system. The day before assay, cells were trypsinized and plated in 384-well tissue culture plates. The next day, compound dilutions in DMSO/media containing doxycycline were added to the wells and incubated at 37° C., 5% CO2.
(§1) For chemical structures that include one or more stereoisomers, but are illustrated without indicating stereochemistry, the assay data refers to a mixture of stereoisomers.

[6] = test system: IL-2-FL/Gaussia Luciferase; test: Dox Induced IL2-FL-Gluc Assay; assay type: cell-based; settings: for IC50: 24 hr Dox induction, 293FRT/TO cells, read-out: 24 hr Dox Inducible IL2FLGluc 293FRT/TO: Mean IC50; for 24 hr Dox Inducible IL2FLGluc 293FRT/TO: IL2/PD1: ratio of IL2FLGluc IC50 to PD1ssGluc IC50
Description: Flp-In 293 T-REx™ cells were transfected with pcDNA™5/FRT/TO plasmid inserted with cDNA encoding Gaussia Luciferase fused to the 3′ end of cDNA encoding full length IL-2 (amino acids 1-153). Transfected cells were selected for resistance to the selectable markers Hygromycin and Blasticidin to create a stable cell line that contained the IL-2-FL/Gaussia Luciferase cDNA insert whose expression was regulated under the T-REx™ system. The day before assay, cells were trypsinized and plated in 384-well tissue culture plates. The next day, compound dilutions in DMSO/media containing doxycycline were added to the wells and incubated at 37° C., 5% CO2.
as §1

[7] = '<=>' given where both are I.A.

| Liver Microsome Stability (Multiple Species): Rat - % Remaining after 30 min w/NADPH [1] | Liver Microsome Stability (Multiple Species): Mouse - % Remaining after 30 min w/NADPH [2] | Liver Microsome Stability (Multiple Species): Human - % Remaining after 30 min w/NADPH [3] | Liver Microsome Stability (Multiple Species): Monkey - % Remaining after 30 min w/NADPH [4] | IC50 [5] | IC50 [6] | IC50 ([5]; mean) | IC50 ([6]; mean) | SMILES | 24 hr Dox Inducible IL2FLGluc 293FRT/TO: IL2/PD1 [6] | 24 hr Dox Inducible IL2FLGluc 293FRT/TO: IL2/PD1 [6, 7] |
| --- | --- | --- | --- | --- | --- | --- | --- | --- | --- | --- |
| 0.2% | 0.15% | 0.07% | 0.08% | – | – | – | – | N#CC[C@@H]1CC[C@H]1Cn1cccc1C(=O)Nc1nc([C@H]2CCCN2c2ccccc2)cs1 [Compound C18, 1-(((1R,2S)-2-(cyanomethyl)cyclobutyl)methyl)-N-(4-((R)-1-phenylpyrrolidin-2-yl)thiazol-2-yl)-1H-pyrrole-2-carboxamide] | – | – |
| 3.9% | 3.48% | 3.59% | 8.4% | – | – | – | – | N#CCC1(Cn2cccc2C(=O)Nc2nc([C@H]3CCCN3c3ccccc3)cs2)COC1 [Compound C19, (R)-1-((3-(cyanomethyl)oxetan-3-yl)methyl)-N-(4-(1-phenylpyrrolidin-2-yl)thiazol-2-yl)-1H-pyrrole-2-carboxamide] | – | – |
| – | – | – | – | – | – | 7970 nM | > 25000 nM | O=C(Nc1nc([C@H]2CCCN2c2ccccc2)cs1)c1cccn1CCCCc1cnn[nH]1 [Compound C26, (R)-1-(4-(1H-1,2,3-triazol-5-yl)butyl)-N-(4-(1-phenylpyrrolidin-2-yl)thiazol-2-yl)-1H-pyrrole-2-carboxamide] | – | >3.1 |
| – | – | – | – | – | – | 17.5 nM | 56.8 nM | O=C(Nc1nc([C@H]2CCCN2c2ccccc2)cs1)c1cccn1Cc1ccncc1F [Compound E27, (R)-1-((3-fluoropyridin-4-yl)methyl)-N-(4-(1-phenylpyrrolidin-2-yl)thiazol-2-yl)-1H-pyrrole-2-carboxamide] | – | 3.2 |
| – | – | – | – | – | – | 315 nM | 2980 nM | CC(C)c1cccc(/C=C/c2csc(NC(=O)c3cccn3Cc3ccncc3)n2)n1 [Compound E55, (E)-N-(4-(2-(6-isopropylpyridin-2-yl)vinyl)thiazol-2-yl)-1-(pyridin-4-ylmethyl)-1H-pyrrole-2-carboxamide] | – | 9.5 |

The next lines start with the molecule.

| SMILES | Liver Microsome Stability (Multiple Species): Rat - % Remaining after 30 min w/NADPH [1] | Liver Microsome Stability (Multiple Species): Mouse - % Remaining after 30 min w/NADPH [2] | Liver Microsome Stability (Multiple Species): Human - % Remaining after 30 min w/NADPH [3] | Liver Microsome Stability (Multiple Species): Monkey - % Remaining after 30 min w/NADPH [4] | IC50 [5] | IC50 [6] | IC50 ([5]; mean) | IC50 ([6]; mean) | 24 hr Dox Inducible IL2FLGluc 293FRT/TO: IL2/PD1 [6] | 24 hr Dox Inducible IL2FLGluc 293FRT/TO: IL2/PD1 [6, 7] |
| --- | --- | --- | --- | --- | --- | --- | --- | --- | --- | --- |
| O=C(Nc1nc([C@H]2CCCN2c2ccc(OC3CCNCC3)cc2)cs1)c1cccn1Cc1ccncc1 [Compound A6, (R)-N-(4-(1-(4-(piperidin-4-yloxy)phenyl)pyrrolidin-2-yl)thiazol-2-yl)-1-(pyridin-4-ylmethyl)-1H-pyrrole-2-carboxamide] | 44.8% | 37.4% | 25.7% | 25.4% | – | – | – | – | – | – |
| CCc1ccc(N2CCC[C@@H]2c2csc(NC(=O)c3cccn3Cc3ccncc3)n2)cc1 [Compound A22, (R)-N-(4-(1-(4-ethylphenyl)pyrrolidin-2-yl)thiazol-2-yl)-1-(pyridin-4-ylmethyl)-1H-pyrrole-2-carboxamide] | 11.7% | 15.8% | 29.1% | 17.6% | – | – | – | – | – | – |
| CC(C)c1ccc(N2CCC[C@@H]2c2csc(NC(=O)c3cccn3Cc3ccncc3)n2)cc1 [Compound A23, (R)-N-(4-(1-(4-isopropylphenyl)pyrrolidin-2-yl)thiazol-2-yl)-1-(pyridin-4-ylmethyl)-1H-pyrrole-2-carboxamide] | 40.2% | 25.3% | 24.7% | 29.9% | – | – | – | – | – | – |
| O=C(Nc1nc([C@H]2CCCN2c2ccc(C3CC3)cc2)cs1)c1cccn1Cc1ccncc1 [Compound A24, (R)-N-(4-(1-(4-cyclopropylphenyl)pyrrolidin-2-yl)thiazol-2-yl)-1-(pyridin-4-ylmethyl)-1H-pyrrole-2-carboxamide] | 35.9% | 19.9% | 22.4% | 22.5% | – | – | – | – | – | – |
| O=C(Nc1nc([C@H]2CCCN2c2cnccn2)cs1)c1cccn1Cc1ccncc1 [Compound A30, (R)-N-(4-(1-(pyrazin-2-yl)pyrrolidin-2-yl)thiazol-2-yl)-1-(pyridin-4-ylmethyl)-1H-pyrrole-2-carboxamide] | 0.21% | 0.86% | 0.27% | 0.03% | – | – | – | – | – | – |
| O=C(Nc1nc([C@H]2CCCN2c2ncccn2)cs1)c1cccn1Cc1ccncc1 [Compound A32, (R)-1-(pyridin-4-ylmethyl)-N-(4-(1-(pyrimidin-2-yl)pyrrolidin-2-yl)thiazol-2-yl)-1H-pyrrole-2-carboxamide] | 0.55% | 0.17% | 0.24% | 0.05% | – | – | – | – | – | – |
| CC1=NC(/C=C/c2csc(NC(=O)c3cccn3Cc3ccncc3)n2)CO1 (centres unmarked) [Compound B14] | 3.31% | 2.9% | 3.9% | 6.02% | – | – | – | – | – | – |
| CN1C(=O)OCC1/C=C/c1csc(NC(=O)c2cccn2Cc2ccncc2)n1 (centres unmarked) [Compound B15, (E)-N-(4-(2-(3-methyl-2-oxooxazolidin-4-yl)vinyl)thiazol-2-yl)-1-(pyridin-4-ylmethyl)-1H-pyrrole-2-carboxamide] | 0.28% | 0.34% | 0.11% | 0.4% | – | – | – | – | – | – |
| CN1C(=O)CCCC1/C=C/c1csc(NC(=O)c2cccn2Cc2ccncc2)n1 (centres unmarked) [Compound B19, (E)-N-(4-(2-(1-methyl-6-oxopiperidin-2-yl)vinyl)thiazol-2-yl)-1-(pyridin-4-ylmethyl)-1H-pyrrole-2-carboxamide] | 1.18% | 0.83% | 0.05% | 0.03% | – | – | – | – | – | – |
| Cn1ccnc1/C=C/c1csc(NC(=O)c2cccn2Cc2ccncc2)n1 [Compound B20, (E)-N-(4-(2-(1-methyl-1H-imidazol-2-yl)vinyl)thiazol-2-yl)-1-(pyridin-4-ylmethyl)-1H-pyrrole-2-carboxamide] | – | – | – | – | 5420 nM | > 25000 nM | – | – | >4.6 | – |
